Legend:
Format in all cases: biochemical
BChE from equine serum = molecular target: T1, BChE from equine serum (Equus caballus, UniProt P81908); test: biochemical; conditions: isolated compounds; mean ± SD, n = 3; ND = no detection using test concentration; read-out: IC50 BChE
T1 construct: BChE from equine serum; purchased Sigma-Aldrich Co., St. Louis, USA; host or cells: equine serum
Description: (§1) The AChE- and BChE-inhibitory, MTT, and Th T assays were analyzed using a UV–visible (VIS) spectrophotometer (Biotek, EPOCH2, Winooski, VT, USA), ensuring accurate measurements. For BACE1- and MAO-B-inhibitory assays, a multimode microplate reader (SpectraMax M3, Molecular Devices, San Jose, CA, USA) was employed, providing precise readings. Analytical-grade DMSO from DEAJUNG Chemical, Korea, served as a solvent in the bioassays. Reagents and solvents, including AChE from electric eel, acetylthiocholine iodide (ATCh), BChE from equine serum, S-butyrylthiocholine iodide (BTCh), 5,5′-dithiobis [2-nitrobenzoic acid] […] Additionally, the BACE1-inhibitory assay utilized the BACE1 (β-secretase) FRET assay kit from PanVera® Corporation, Madison, USA, while the MAO-B-inhibitory assay employed the MAO-B Inhibitor Screening Kit (Fluorometric) ab284511 from Abcam plc Co., Cambridge, UK.
(§2) The inhibitory activities against cholinesterases (AChE and BChE) were evaluated using a spectrophotometric method previously developed by Ellman et al.. Specifically, ATCh and BTCh were used as substrates to measure the inhibitory effects on AChE and BChE, respectively. The assay mixture consisted of 140 μL of 0.1 M sodium phosphate buffer at pH 7.8, 20 μL of a 0.38 U/mL solution of either AChE or BChE, and 20 μL of the test sample solution. This mixture was thoroughly mixed and then incubated at room temperature for 15 min. […] Reactions were initiated by adding 10 μL of 0.5 mM DTNB and 10 μL of either 0.6 mM ATCh or BTCh. ChE-inhibitory activity was monitored by measuring the formation of the yellow 5-thio-2-nitrobenzoate anion at 412 nm over 15 min (Epoch, BioTek, Winooski, VT, USA), resulting from the reaction of DTNB and thiocholine released from ATCh or BTCh. All reactions were conducted in 96-well microplates and performed in triplicate. The percentage of inhibition (%) was determined using the following formula: inhibition (%)={(Ac−As)/Ac}×100 , where Ac represents the enzyme activity in the absence of the test sample, and As represents the enzyme activity in the presence of the test sample. The ChE-inhibitory activities of each sample were quantified in terms of IC50, which was calculated from the log–dose inhibition curve.

AChE from electric eel = molecular target: T2, AChE from electric eel (Electrophorus electricus, UniProt O42275); test: biochemical; conditions: isolated compounds; mean ± SD, n = 3; ND = no detection using test concentration; read-out: IC50 AChE
T2 construct: purchased Sigma-Aldrich Co., St. Louis, USA
T2 sequence (O42275 24-633): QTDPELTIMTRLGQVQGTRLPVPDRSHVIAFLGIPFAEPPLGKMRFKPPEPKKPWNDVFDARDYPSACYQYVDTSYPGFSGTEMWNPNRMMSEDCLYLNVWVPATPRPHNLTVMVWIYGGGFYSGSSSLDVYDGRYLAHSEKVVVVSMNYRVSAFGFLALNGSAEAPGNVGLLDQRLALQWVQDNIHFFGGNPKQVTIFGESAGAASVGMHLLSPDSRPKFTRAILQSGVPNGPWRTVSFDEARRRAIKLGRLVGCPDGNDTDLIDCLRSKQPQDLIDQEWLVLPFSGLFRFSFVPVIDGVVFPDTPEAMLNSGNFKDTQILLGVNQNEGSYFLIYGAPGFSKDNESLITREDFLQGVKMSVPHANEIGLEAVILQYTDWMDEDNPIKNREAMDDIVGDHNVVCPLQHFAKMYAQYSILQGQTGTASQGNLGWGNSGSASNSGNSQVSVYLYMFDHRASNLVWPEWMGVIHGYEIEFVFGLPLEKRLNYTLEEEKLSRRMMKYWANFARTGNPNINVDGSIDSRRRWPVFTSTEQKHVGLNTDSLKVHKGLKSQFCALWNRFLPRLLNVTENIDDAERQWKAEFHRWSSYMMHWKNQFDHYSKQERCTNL
Description: as §1, §2

Aβ1-42 [1] = molecular target: T3, Aβ1-42 (Homo sapiens, UniProt P05067); test: Thioflavin T assay, disaggregation of preformed Aβ aggregates; conditions: 24 h with Aβ pre-aggregated for 24 h
T3 construct: Aβ1-42 used for the Th T assay was purchased from GL Biochem, Shanghai, China; purchased GL Biochem, Shanghai, China
T3 sequence (P05067 672-713 limits assumed): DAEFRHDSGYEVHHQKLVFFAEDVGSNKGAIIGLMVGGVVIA
Description: (§3) The Th T assay was conducted to assess the aggregation of Aβ into oligomers and fibrils. Aβ1-42 was dissolved in DMSO at a concentration of 1 mg/mL, and test samples were also dissolved in DMSO. Aβ1-42 (20 μM) was incubated with various concentrations of test samples at 37 °C for 24 h to evaluate the effects of test samples on Aβ aggregation. Subsequently, 3 μM of Th T was added, and fluorescence was measured after 30 min using an E-max precision microplate reader with excitation at 442 nm and emission at 485 nm (Epoch, BioTek, Winooski, VT, USA). Aβ treated with DMSO only served as a control, and each assay was performed in triplicate. Then, the Th T assay was performed to assess the effects of test samples on the disaggregation of preformed Aβ aggregates. Briefly, 20 μM of Aβ1-42 was incubated at 37 °C for 24 h. Various concentrations of test samples were then added and incubated at 37 °C for an additional 24 h. Subsequently, 3 μM of Th T was added, and fluorescence was measured after 30 min using an E-max precision microplate reader with excitation at 442 nm and emission at 485 nm (Epoch, BioTek, Winooski, VT, USA). Aβ treated with DMSO only served as a control, and each assay was performed in triplicate.

Aβ1-42 [2] = molecular target: T3, Aβ1-42; test: Thioflavin T assay, Aβ aggregation; conditions: 24 h, Aβ1-42 20 μM
Description: as §3

T1 sequence (P81908 whole entry): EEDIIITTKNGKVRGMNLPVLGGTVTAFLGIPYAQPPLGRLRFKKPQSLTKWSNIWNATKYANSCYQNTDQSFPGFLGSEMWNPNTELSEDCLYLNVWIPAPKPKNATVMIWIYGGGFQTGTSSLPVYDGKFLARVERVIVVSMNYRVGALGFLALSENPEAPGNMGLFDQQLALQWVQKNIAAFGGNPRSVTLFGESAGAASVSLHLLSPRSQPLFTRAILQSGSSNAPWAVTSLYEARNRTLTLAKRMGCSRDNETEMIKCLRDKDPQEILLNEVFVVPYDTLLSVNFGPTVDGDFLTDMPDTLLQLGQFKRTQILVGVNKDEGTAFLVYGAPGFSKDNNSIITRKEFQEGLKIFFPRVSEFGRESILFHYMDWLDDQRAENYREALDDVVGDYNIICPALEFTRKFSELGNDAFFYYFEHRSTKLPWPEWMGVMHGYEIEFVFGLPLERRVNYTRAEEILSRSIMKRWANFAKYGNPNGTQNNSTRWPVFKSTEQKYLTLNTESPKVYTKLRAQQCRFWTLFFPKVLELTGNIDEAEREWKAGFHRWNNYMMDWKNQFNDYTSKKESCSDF

SMILES	IC50 (BChE from equine serum)	IC50 (AChE from electric eel)	degradation of preformed Aβ aggregates (Aβ1-42 [1]; 1.0 μM)	decrease of Aβ aggregation relative to DMSO-treated control (Aβ1-42 [2]; 1.0 μM)	degradation of preformed Aβ aggregates (Aβ1-42 [1]; 0.5 μM)	Aβ aggregation reduced to % of the levels in the DMSO-treated control (Aβ1-42 [2]; 0.5 μM)	decrease of Aβ aggregation relative to DMSO-treated control (Aβ1-42 [2]; 0.5 μM)	Aβ aggregation reduced to % of the levels in the DMSO-treated control (Aβ1-42 [2]; 1.0 μM)
C[C@@H]1O[C@@H](Oc2c(-c3ccc(O)cc3)oc3cc(O[C@@H]4O[C@H](CO)[C@@H](O)[C@H](O)[C@H]4O)cc(O)c3c2=O)[C@H](O)[C@H](O)[C@H]1O [Compound 6, kaempferol 3-O-rhamnoside 7-O-glucoside]	32.6 ± 5.66 µM	353.43 ± 0.32 µM	approximately 45%	approximately 40%				
O=c1c(O[C@@H]2O[C@H](CO)[C@@H](O)[C@H](O)[C@H]2O)c(-c2ccc(O)cc2)oc2cc(O[C@@H]3O[C@@H](CO)[C@H](O)[C@H]3O)cc(O)c12 [Compound 7, kaempferol 3-o-b-d-glucopyranoside-7-o-a-L-arabinofuranoside]	28.8 ± 0.31 µM	47.33 ± 0.22 µM		~80%	~60%	~55%	55%	approximately 80%

Reference: paper PMC11358882, “Neuroprotective Effects of Phenolic Constituents from Drynariae Rhizoma” (Pharmaceuticals, 2024)
